{"source": "patent US20150119410A1", "about": "“BIOMARKERS OF RESPONSE TO NAE INHIBITORS” (MILLENNIUM PHARMACEUTICALS, INC., priority 2011, published 2015)", "assay_in_all_cases": "Cell line panel 1 viability screen", "type_in_all_cases": "cell-based", "key": {"647-V": {"system": "647-V", "conditions": "647-V (urinary_tract)", "procedure": "(§1) To support clinical development and identify potential biomarkers of tumor sensitivity or resistance, two large cancer cell line panels (Panel 1, N=653 (McDermott et al. (2007) PNAS 104:19936-19941); Panel 2, N=240 (O'Day et al. (2010) Fourth AACR International Conference on Molecular Diagnostics in Cancer Therapeutic Development)) were treated with MLN4924 and cell viability data (IC50, EC50, and POC—Percentage of Control) were generated.\n(§2) Panel 1 (McDermott et al., supra). The cell lines were exposed to three MLN4924 concentrations (20 nM, 200 nM, and 2 μM) for 72 hours. Viability, i.e., cell number, was quantified by measuring fluorescence of a cell-permeant nucleic acid stain. Mean of triplicate values for each sample were taken and compared to DMSO control to calculate percentage of control. In the results, control or no activity value is given a value of about 1, sensitivity is indicated by a value less than 1, with 0 as death of the entire cell population and resistance indicated by a value greater than 1. A continuum of viability values was obtained for each concentration, so some values were selected as cut-offs for final determination of sensitivity or resistance. For example, median POC values of less than the median value of all POC's recorded in the panel (<0.34) indicated sensitivity, values of 0.34 to 0.75 indicated borderline sensitivity, values greater than the 3rd quartile of all POC's in the panel (>0.75) insensitivity or resistance. […] Final judgment of cell line as sensitive, insensitive or resistant was determined by its viability at 2 μM."}, "8505C": {"system": "8505C", "conditions": "8505C (thyroid)", "procedure": "as §1, §2"}, "C-33a": {"system": "C-33a", "conditions": "C-33a (Cervix)", "procedure": "as §1, §2"}, "COCM1": {"system": "COCM1", "procedure": "as §1, §2"}, "ESS-1": {"system": "ESS-1", "conditions": "ESS-1 (Uterus)", "procedure": "as §1, §2"}, "FADU": {"system": "FADU", "conditions": "FADU (upper aerodigestive tract)", "procedure": "as §1, §2"}, "HGC-27": {"system": "HGC-27", "conditions": "Homo sapiens; HGC-27 (stomach); 2 μM MLN4924, 72 hours; DMSO control about 1", "procedure": "as §1, §2"}, "HT55": {"system": "HT55", "conditions": "Homo sapiens; HT55 (intestine); 2 μM MLN4924, 72 hours; DMSO control about 1", "procedure": "as §1, §2"}, "KP-4": {"system": "KP-4", "conditions": "KP-4 (pancreas)", "procedure": "as §1, §2"}, "KU-19-19": {"system": "KU-19-19", "conditions": "KU-19-19 (urinary_tract)", "procedure": "as §1, §2"}, "KYSE-150": {"system": "KYSE-150", "conditions": "KYSE-150 (oesophagus)", "procedure": "as §1, §2"}, "KYSE-450": {"system": "KYSE-450", "conditions": "KYSE-450 (oesophagus)", "procedure": "as §1, §2"}, "MIA-PaCa-2": {"system": "MIA-PaCa-2", "conditions": "MIA-PaCa-2 (pancreas)", "procedure": "as §1, §2"}, "NCI-N87": {"system": "NCI-N87", "conditions": "NCI-N87 (stomach)", "procedure": "as §1, §2"}, "NCl-H520": {"system": "NCl-H520", "conditions": "NCl-H520 (lung NSCLC); 2 μM MLN4924, 72 hours; DMSO control about 1", "procedure": "as §1, §2"}, "PANC-03-27": {"system": "PANC-03-27", "conditions": "PANC-03-27 (pancreas)", "procedure": "as §1, §2"}, "S-117": {"system": "S-117", "conditions": "S-117 (soft_tissue)", "procedure": "as §1, §2"}, "SK-OV-3": {"system": "SK-OV-3", "conditions": "Homo sapiens; SK-OV-3 (ovary); 2 μM MLN4924, 72 hours; DMSO control about 1", "procedure": "as §1, §2"}, "SN12C": {"system": "SN12C", "conditions": "SN12C (kidney)", "procedure": "as §1, §2"}, "SW837": {"system": "SW837", "conditions": "Homo sapiens; SW837 (intestine); 2 μM MLN4924, 72 hours; DMSO control about 1", "procedure": "as §1, §2"}, "UMC-11": {"system": "UMC-11", "conditions": "UMC-11 (lung)", "procedure": "as §1, §2"}, "YAPC": {"system": "YAPC", "conditions": "YAPC (pancreas)", "procedure": "as §1, §2"}, "[1]": {"conditions": "Homo sapiens, 2 μM MLN4924, 72 hours, DMSO control about 1"}}}
{"smiles": "NS(=O)(=O)OC[C@@H]1C[C@@H](n2ccc3c(N[C@H]4CCc5ccccc54)ncnc32)C[C@@H]1O", "note": "[MLN4924, ((1S,2S,4R)-4-{4-[(1S)-2,3-dihydro-1H-inden-1-ylamino]-7H-pyrrolo[2,3-d]pyrimidin-7-yl}-2-hydroxycyclopentyl)methyl sulphamate]", "values": [{"measurement": "Phenotype", "setting": "647-V; NF2 mutant", "value": "sensitive (median POC values of less than the median value of all POC's recorded in the panel (<0.34) indicated sensitivity)"}, {"measurement": "viability at 2 µM", "setting": "647-V; [1]", "value": 3.8, "unit": "%"}, {"measurement": "Phenotype", "setting": "8505C; NF2 mutant", "value": "sensitive (median POC values of less than the median value of all POC's recorded in the panel (<0.34) indicated sensitivity)"}, {"measurement": "viability at 2 µM", "setting": "8505C; [1]", "value": 14.1, "unit": "%"}, {"measurement": "Phenotype", "setting": "C-33a; FBXW7 mutant", "value": "sensitive (median POC values of less than the median value of all POC's recorded in the panel (<0.34) indicated sensitivity)"}, {"measurement": "viability at 2 µM", "setting": "C-33a; [1]", "value": 8.22, "unit": "%"}, {"measurement": "viability at 2 µM", "setting": "COCM1; COCM1 / CoCM-1 (intestine), 2 μM MLN4924, 72 hours, DMSO control about 1", "value": 114, "unit": "%"}, {"measurement": "Phenotype", "setting": "COCM1; CoCM-1 (large_intestine), SMAD4 mutant", "value": "resistant (values greater than the 3rd quartile of all POC's in the panel (>0.75) insensitivity or resistance)"}, {"measurement": "Phenotype", "setting": "ESS-1; FBXW7 mutant", "value": "sensitive (median POC values of less than the median value of all POC's recorded in the panel (<0.34) indicated sensitivity)"}, {"measurement": "viability at 2 µM", "setting": "ESS-1; [1]", "value": 5.29, "unit": "%"}, {"measurement": "Phenotype", "setting": "FADU; SMAD4 mutant", "value": "sensitive (median POC values of less than the median value of all POC's recorded in the panel (<0.34) indicated sensitivity)"}, {"measurement": "viability at 2 µM", "setting": "FADU; [1]", "value": 7.3, "unit": "%"}, {"measurement": "viability at 2 µM", "setting": "HGC-27", "value": 12.9, "unit": "%"}, {"measurement": "viability at 2 µM", "setting": "HT55", "value": 51.4, "unit": "%"}, {"measurement": "viability at 2 µM", "setting": "KP-4; [1]", "value": 5.18, "unit": "%"}, {"measurement": "Phenotype", "setting": "KP-4; SMAD4 mutant", "value": "sensitive (median POC values of less than the median value of all POC's recorded in the panel (<0.34) indicated sensitivity)"}, {"measurement": "viability at 2 µM", "setting": "KU-19-19; [1]", "value": 5.8, "unit": "%"}, {"measurement": "Phenotype", "setting": "KU-19-19; KDM6A mutant", "value": "sensitive (median POC values of less than the median value of all POC's recorded in the panel (<0.34) indicated sensitivity)"}, {"measurement": "viability at 2 µM", "setting": "KYSE-150; [1]", "value": 12.8, "unit": "%"}, {"measurement": "Phenotype", "setting": "KYSE-150; SMAD4 mutant", "value": "sensitive (median POC values of less than the median value of all POC's recorded in the panel (<0.34) indicated sensitivity)"}, {"measurement": "viability at 2 µM", "setting": "KYSE-450; [1]", "value": 14.3, "unit": "%"}, {"measurement": "Phenotype", "setting": "KYSE-450; KDM6A mutant", "value": "sensitive (median POC values of less than the median value of all POC's recorded in the panel (<0.34) indicated sensitivity)"}, {"measurement": "viability at 2 µM", "setting": "MIA-PaCa-2; [1]", "value": 11.5, "unit": "%"}, {"measurement": "Phenotype", "setting": "MIA-PaCa-2; KDM6A mutant", "value": "sensitive (median POC values of less than the median value of all POC's recorded in the panel (<0.34) indicated sensitivity)"}, {"measurement": "viability at 2 µM", "setting": "NCI-N87; [1]", "value": 14.6, "unit": "%"}, {"measurement": "Phenotype", "setting": "NCI-N87; SMAD4 mutant", "value": "sensitive (median POC values of less than the median value of all POC's recorded in the panel (<0.34) indicated sensitivity)"}, {"measurement": "viability at 2 µM", "setting": "NCl-H520", "value": 55.8, "unit": "%"}, {"measurement": "viability at 2 µM", "setting": "PANC-03-27; [1]", "value": 7.24, "unit": "%"}, {"measurement": "Phenotype", "setting": "PANC-03-27; SMAD4 mutant", "value": "sensitive (median POC values of less than the median value of all POC's recorded in the panel (<0.34) indicated sensitivity)"}, {"measurement": "viability at 2 µM", "setting": "S-117; [1]", "value": 64.1, "unit": "%"}, {"measurement": "Phenotype", "setting": "S-117; NF2 mutant", "value": "resistant (values greater than the 3rd quartile of all POC's in the panel (>0.75) insensitivity or resistance)"}, {"measurement": "viability at 2 µM", "setting": "SK-OV-3", "value": 39.7, "unit": "%"}, {"measurement": "viability at 2 µM", "setting": "SN12C; [1]", "value": 33.6, "unit": "%"}, {"measurement": "Phenotype", "setting": "SN12C; NF2 mutant", "value": "sensitive (median POC values of less than the median value of all POC's recorded in the panel (<0.34) indicated sensitivity)"}, {"measurement": "viability at 2 µM", "setting": "SW837", "value": 70.2, "unit": "%"}, {"measurement": "viability at 2 µM", "setting": "UMC-11; [1]", "value": 44.7, "unit": "%"}, {"measurement": "Phenotype", "setting": "UMC-11; SMAD4 mutant", "value": "insensitive (values of 0.34 to 0.75 indicated borderline sensitivity)"}, {"measurement": "viability at 2 µM", "setting": "YAPC; [1]", "value": 18.7, "unit": "%"}, {"measurement": "Phenotype", "setting": "YAPC; SMAD4 mutant", "value": "sensitive (median POC values of less than the median value of all POC's recorded in the panel (<0.34) indicated sensitivity)"}]}
